System: Plasmodium falciparum
Assay: GSK_TCMDC: Inhibition of Plasmodium falciparum 3D7 in whole erythrocytes, using parasite LDH activity as an index of growth.
Assay type: functional, organism-based
Conditions: Plasmodium falciparum, 3D7

Row | SMILES | XC50
1 | Cc1[nH]c(C)c(-c2ccc(CCc3ccc(C(F)(F)F)cc3)nc2)c(=O)c1Cl | 88.1 nM
2 | CN(CCCCNC(=O)c1ccc(-c2ccccc2)cc1)C1CCc2c(O)cccc2C1 (stereo not drawn) | 724 nM
3 | CS(=O)(=O)c1cccc(-c2cnc3[nH]cc(-c4ccc(CCC(=O)O)cc4)c3c2)c1 | 634 nM
4 | COc1cccc(CCNCCCCCCNCCc2ccc(Cl)cc2)c1 | 1010 nM
5 | COc1ccc(NC(=O)NC2CCN(CCCCCNC(=O)/C=C/c3ccc(Cl)c(Cl)c3)C2)c(OC)c1 (stereo not drawn) | 823 nM
6 | CCCCCOc1ccc(C(O)C(CCC(CN2CCCCCC2)C(O)c2ccc(OCCCCC)cc2)CN2CCCCCC2)cc1 (stereo not drawn) | 768 nM
7 | O=[N+]([O-])c1cccc(/C=N/Nc2ccnc3cc(F)ccc23)c1 | 910 nM
8 | O=C(N1CCN(c2ccc(C(F)(F)F)cc2[N+](=O)[O-])CC1)C(Cl)(Cl)Cl | 713 nM
9 | COc1cc(Nc2ccnc3cc(-c4nccs4)ccc23)ccc1OCCCc1nc2ccccc2[nH]1 | 237 nM
10 | Cc1cc(=O)oc2c1ccc1oc(C(O)c3ccc(Cl)cc3)c(C)c12 (stereo not drawn) | 130 nM
11 | CCN(CC)CCCC(C)Nc1c2cc(OC)ccc2nc2cc(Cl)c([N+](=O)[O-])cc12 (stereo not drawn) | 787 nM
12 | CCOc1ccc2nc3cc(NC(=O)c4ccco4)ccc3c(N)c2c1 | 802 nM
13 | CCc1nc(N)nc(N)c1CCCOc1ccccc1Cl | 105 nM
14 | COc1ccc2ccc(F)c(CC(=O)N3CCOC(CNCc4cccc(-c5ccsc5)n4)C3)c2n1 (stereo not drawn) | 1170 nM
15 | COc1cc2nccc(Nc3ccc4c(cnn4Cc4cccc(F)c4)c3)c2cc1OC | 237 nM
16 | O=C(CN1CCC(NCc2cnc(-c3ccc(Cl)cc3)[nH]2)CC1)N1CCc2ccccc21 | 650 nM
17 | COc1ccccc1C1CCN(C2CCC(NC(=O)/C=C/c3ccc(C(F)(F)F)cc3F)CC2)CC1 (stereo not drawn) | 990 nM
18 | Cc1nnsc1C(=O)Nc1cccc(-c2ccc(-c3nc4cc(C(F)(F)F)ccc4[nH]3)cc2)c1 | 314 nM
19 | COc1ccc(-c2cccc(NC(=O)c3cccc(Cl)c3)c2)cc1CN1CCNCC1 | 803 nM
20 | O=C(Nc1cc(Cl)cc(Cl)c1)c1cc(Cl)c(=O)n(Cc2cccc(Cl)c2)c1 | 752 nM
21 | O=C(CNC1CCCCC1)c1ccc(O)c(O)c1 | 660 nM
22 | Cc1cc(C(=O)Nc2ccc3c(c2)CCN3C2CCN(Cc3ccc(O)cc3)C2)no1 (stereo not drawn) | 774 nM
23 | COc1ccc(-c2cccc(NC(=O)c3cccc(C#N)c3)c2)cc1CN1CCNCC1 | 728 nM
24 | Cc1noc(C)c1-c1cccc(CNCc2ccc(-c3ccc(-c4nc5cc(C(F)(F)F)ccc5[nH]4)cc3)cc2)c1 | 172 nM
25 | Clc1ccc(-c2ccc(C=NNc3nc(=Nc4ccccc4)[nH]c(=Nc4ccccc4)[nH]3)o2)cc1Cl | 736 nM

Row | SMILES | XC50
26 | CC(C)CCN(Cc1cncn1Cc1ccccc1F)C(=O)c1cncc(-c2ccccc2)c1 | 791 nM
27 | O=C(Nc1cccc(F)c1)N1CCC(NS(=O)(=O)c2ccc(Br)cc2)CC1 | 979 nM
28 | N=C(N)NN=Cc1c2ccccc2c(Cl)c2c(Cl)cccc12 | 878 nM
29 | C#CCCOc1ccc2ccccc2c1CNCCCCCCNCc1c(OCCC#C)ccc2ccccc12 | 811 nM
30 | Cc1csc2nc(-c3ccccn3)nc(Nc3ccncn3)c12 | 786 nM
31 | CN(C)Cc1cc(Nc2ccnc3cc(Cl)ccc23)ccc1O | 9.49 nM
32 | CC(C)(C)CCN1CCC(CNC(=O)c2cc(-c3cccc(C(F)(F)F)c3)cs2)C1 (stereo not drawn) | 887 nM
33 | CCCCN(Cc1cccc(C(F)(F)F)c1Cl)c1ccc(C(O)(C(F)(F)F)C(F)(F)F)cc1 | 960 nM
34 | Cc1cc(-c2cc(Cl)ccc2Cl)no1 | 168 nM
35 | CC(=O)Nc1ccc(C(=O)Nc2cccc(-c3ccc(-c4nc5cc(F)ccc5[nH]4)s3)c2)cn1 | 233 nM
36 | O=c1cc(NC[C@H]2CCC[C@@H]2NC2CCCc3c2[nH]c2ccccc32)[nH]c2ccccc12 (stereo partly drawn) | 786 nM
37 | O=C(NCC(NCCCNc1cc(=O)c2ccccc2[nH]1)c1cc(Br)cc(Br)c1)C1=CCCC1 (stereo not drawn) | 901 nM
38 | Cc1ccc(S(C)(=O)=O)cc1/C=C/C(=O)O | 868 nM
39 | CCN(CC)CCN(Cc1ccc(-c2ccc(C(F)(F)F)cc2)cc1)C(=O)Cn1c(CCc2ccc(F)c(F)c2F)nc(=O)c2cccnc21 | 1130 nM
40 | O=C(c1cc(C(F)(F)F)cc(C(F)(F)F)c1)N1CCC(CCN2CCC3(CC2)C(=O)NCN3c2ccccc2)CC1Cc1ccc(Cl)c(Cl)c1 (stereo not drawn) | 656 nM
41 | CC(C)(NCc1ccc(OC(F)(F)F)cc1)c1nc(-c2ccc(Cl)c(O)c2)c(-c2ccncc2)[nH]1 | 940 nM
42 | Cc1cc(NCCc2cccc(F)c2)nc(NC(=N)Nc2cccc(C(F)(F)F)c2)n1 | 146 nM
43 | CO/C(=C\C=C\c1cc2cc(Cl)c(Cl)cc2[nH]1)C(=O)NCCCN1CCCC[C@@H]1C | 755 nM
44 | CCN(CC)CCCC(C)Nc1ccnc2[nH]c3ccccc3c12 (stereo not drawn) | 1770 nM
45 | O=C(Nc1ccc2oc(-c3ccc(Br)cc3)nc2c1)c1ccc([N+](=O)[O-])o1 | 968 nM
46 | CC(=O)NCCNc1nccc(N2CCc3ncnc(Nc4ccc(OCc5cccc(F)c5)c(Cl)c4)c3C2)n1 | 129 nM
47 | O=C(/C=C/c1ccc(Cl)c(Cl)c1)NCC(CCCN1CCC(c2c[nH]c3ccccc23)CC1)c1ccccc1 (stereo not drawn) | 813 nM
48 | CC(C)CNC(=O)c1ccnc(-c2ccc(CNC3Cc4ccccc4C3)cc2)c1 | 790 nM
49 | Cc1cc(N[C@@H](CC(C)C)C(=O)NCc2cccs2)nc(NCCc2cccs2)n1 | 1020 nM
50 | CO[C@H](C)[C@H](NC(=O)[C@H](CC(C)C)[C@H](CCC(F)(F)F)N(O)C=O)C(=O)Nc1nccs1 | 110 nM

Row | SMILES | XC50
51 | CCCCCCN1CCCN(Cc2ccc(C(=O)Nc3ccc(C(C)(C)C)cc3)cc2)CC1 | 744 nM
52 | CC(C)CSc1cc(C(=O)Nc2cc(Cl)ccc2O)ccn1 | 670 nM
53 | CCCCCCCc1cc(O)c2c3c(c(=O)oc2c1)CN(C)CC3 | 144 nM
54 | COc1ccc(-c2cnc3ccc(N4CCCC4)nn23)cc1OC | 772 nM
55 | O=C(/C=C/c1ccc(Cl)cc1Cl)NCCCCCN1CCC(c2c[nH]c3ccccc23)CC1 | 941 nM
56 | O=C(CSc1nccn1C1CCCC1)Nc1cc(C(F)(F)F)ccc1Cl | 382 nM
57 | NC(=O)C1CCN(Cc2cccc(-c3ccc(-c4nc5cc(C(F)(F)F)ccc5[nH]4)cc3)c2)CC1 | 610 nM
58 | CN(CCN)Cc1cccc(-c2cccc(-c3nc4cc(C(F)(F)F)ccc4[nH]3)c2)c1 | 509 nM
59 | Cc1cc(NC2CCCC2)nc(Nc2ccccc2C)n1 | 1350 nM
60 | COc1ccc(CCNc2nc(N)c3cc(OC)c(OC)cc3n2)cc1 | 1120 nM
61 | COc1cc(C=CC(=O)N2CCC(CCN3CCC(c4c[nH]c5ccccc45)CC3)CC2)cc(OC)c1 | 909 nM
62 | Cc1cc(NC(=O)[C@H](CC2CCCCC2)Nc2ccc(C#N)c3ccccc23)ccc1F | 684 nM
63 | N=C(/N=C(/NCCCCCCN/C(=N/C(=N)NCc1ccc(Cl)c(Cl)c1)N1CCCCC1)N1CCCCC1)NCc1ccc(Cl)c(Cl)c1 | 567 nM
64 | O=C(CC1CCCC1)N(Cc1ccc(-c2ccc(CNC3Cc4ccccc4C3)cc2)cc1)CC1CCCCN1 (stereo not drawn) | 1060 nM
65 | O=C(Nc1cccnc1)c1cc(-c2cccnc2)nc2ccc(Br)cc12 | 640 nM
66 | O=S(=O)(c1ccc(Cl)cc1Cl)N1CCCCC(c2ccc(C(F)(F)F)cc2)=N1 | 160 nM
67 | COc1cccc(C2CCN(CCN3CCC(NC(=O)c4ccc(-c5ccc(Cl)cc5)cc4)CC3)CC2)c1 | 1090 nM
68 | Brc1ccccc1CNc1ccnc(NCCn2ccnc2)n1 | 900 nM
69 | CN(C)C(CNC(=O)c1cc(-c2ccncc2)c(-c2ccc(NC(=O)Nc3cccc(Cl)c3)cc2)o1)c1ccccc1 (stereo not drawn) | 183 nM
70 | Cc1nc2nc(N)nc(N)c2c(C)c1Cc1cccc(C#N)c1 | 924 nM
71 | CC(Cc1ccc(COc2ccc(CC(CO)NCCc3cccc(Cl)c3)cc2)cc1)NCCc1cccc(Cl)c1 (stereo not drawn) | 821 nM
72 | CN(c1cc(NC(=O)c2cccs2)ccn1)C1CCN(Cc2cccc(C#N)c2)CC1 | 1260 nM
73 | Cn1cc(CN2CCC(CCOC(c3ccccc3)c3ccccc3)CC2)cn1 | 259 nM
74 | CS(=O)(=O)N1CC2(CCN(CCC(NC(=S)Nc3ccccc3)c3ccc(Cl)c(Cl)c3)CC2)c2ccccc21 (stereo not drawn) | 826 nM
75 | Cc1cc(Nc2ccc(C)c(Cl)c2)n2nc(C(F)(F)F)nc2n1 | 15.8 nM

Row | SMILES | XC50
76 | CCCCCc1cnc2nc(N)nc(N)c2c1C | 211 nM
77 | CC(NC(=O)NC1CCC(CCN2CCCc3ccccc32)CC1)c1cccc2ccccc12 (stereo not drawn) | 1020 nM
78 | O=C(Nc1ccc([N+](=O)[O-])cc1Cl)c1cc2ccccc2cc1O | 1010 nM
79 | COc1cc(NC(=O)Nc2ccc(Br)cc2C(=O)Nc2ccc(Br)cc2)cc(OC)c1OC | 761 nM
80 | CCN1CCN(c2cc(C)c3cc(NC(=O)c4cc(OC)cc(OC)c4)ccc3n2)CC1 | 156 nM
81 | CN(C)c1ccc(CN2CCC(NC(=O)c3ccc(-c4ccccc4F)s3)CC2)cc1 | 1120 nM
82 | O=C(Nc1ccccc1)N(Cc1ccc(-c2cccc(CNCc3ccc4c(c3)OCO4)c2)cc1)C1CCN(Cc2ccccc2)CC1 | 284 nM
83 | Cn1nc(-c2ccc(NC(=O)Nc3cc(C(F)(F)F)ccc3F)cc2)c2cnc(NCCCCN3CCCC3)nc21 | 531 nM
84 | C[C@H](Cc1ccc(OCCCCCOc2ccc(C[C@@H](C)NC[C@H](O)c3cccc(Cl)c3)cc2)cc1)NC[C@H](O)c1cccc(Cl)c1 | 190 nM
85 | COc1cccc(C2(C)CCN(CCCCNC(=O)c3ccc(NC(=O)c4ccc(Cl)cc4)cc3)CC2)c1 | 831 nM
86 | Cc1ccc2c(C3=CCN(CCCCC4(C)C(=O)Nc5c(F)cccc54)CC3)c(C)[nH]c2c1 (stereo not drawn) | 265 nM
87 | CN(C)CCOc1ccc(NC(=O)Nc2ccnc3c(Br)cccc23)cc1Cl | 842 nM
88 | Cc1c(C(=O)N2CCCC(C(F)(F)F)C2)sc2cccc(F)c12 (stereo not drawn) | 599 nM
89 | COc1ccccc1C1CCN(CCCCNC(=O)c2ccc(NC(=O)c3ccc(Cl)cc3)cc2)CC1 | 244 nM
90 | Cc1c(C)c2c(c(C)c1O)CC[C@](C)(C(=O)N1CCC(CN3CCC(c4c[nH]c5ccccc45)CC3)CC1)O2 | 718 nM
91 | Cc1noc(C)c1-c1ccc(C(=C2CCCCCC2)c2ccc(O)cc2)cc1 | 189 nM
92 | CCc1cc(OC)c(C(=O)NC2CCN(C[C@H](O)c3ccnc4ccc(OC)cc34)CC2)cc1Br | 815 nM
93 | Nc1ccc2[nH]cc(C3CCN(CCC4CCN(C(=O)/C=C/c5ccc(Cl)c(Cl)c5)CC4)CC3)c2n1 | 737 nM
94 | Cc1nc2nc(N)nc(N)c2c(C)c1Cc1ccc(Cl)cc1 | 216 nM
95 | COc1cc2c(cc1OC)CC(NCc1ccc(-c3ccc4nc[nH]c4c3)cc1)C2 | 846 nM
96 | N=C(N)c1ccc(Oc2ccc(C(=N)N)cc2)cc1 | 317 nM
97 | Nc1nccc2ccc(-c3ccncc3)cc12 | 249 nM
98 | Cc1cc(NCCc2ccc(O)cc2)nc(NCC(c2ccccc2)c2ccccc2)n1 | 320 nM
